These are literature values, as cited in patent publication US20160129117A1, “Novel Boronic Acid Compound Preparation” (NIPPON KAYAKU KABUSHIKI KAISHA, priority 2013, published 2016).

SMILES strings stand for the structures. Like-named read-outs stand apart in the source and are kept apart here.

For data set [1] the following is noted: in vivo.

Consider `CC(C)C[C@H](NC(=O)[C@H](Cc1ccccc1)NC(=O)c1cnccn1)B(O)O` [bortezomib], for which the “incidence of grade 3 peripheral neuropathy” value was 16% (intravenous administration) and 6% (subcutaneous administration). In addition, the “total dose causing the peripheral nerve toxicity” value in data set [1] is “about 30 mg/m^2”.
